Reference: patent US11180462B2, “Microbiocidal oxadiazole derivatives” (SYNGENTA PARTICIPATIONS AG, priority 2015, dated 2021)

Legend:
[1] = test system: Puccinia recondita f. Sp. Tritici; assay: Fungicidal activity against Puccinia recondita f. sp. tritici / wheat / leaf disc curative (brown rust); type: in vivo; details: foliar, 24 h, 200 ppm in the applied formulation, wheat leaf segments, curative (applied 1 day after inoculation), compared to untreated control leaf disks, read-out: disease control
Method in brief: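 % disease control vs untreated, scored 6–8 d post-application. Wheat cv. Kanzler segments, spore-inoculated, dark 19° C/75% RH; formulated cpd applied 1 d post-inoc; then 19° C, 75% RH, 12 h L/12 h D.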

Phakopsora Pachyrhizi = assay: Fungicidal activity against Phakopsora pachyrhizi / soybean / leaf disc preventative (Asian soybean rust); type: in vivo; details: foliar, 200 ppm in the applied formulation, soybean leaf disks, compared to untreated control leaf disks, read-out: disease control
Method in brief: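 Preventative soybean leaf-disc test: discs on water agar sprayed with diluted formulated compound, inoculated one day later with spores on the lower surface. Held 24–36 h dark at 20°C, 75% rh, then 12 h light/day; percent disease control versus untreated discs scored 12–14 days after application.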

[2] = test system: Puccinia recondita f. Sp. Tritici; assay: Fungicidal activity against Puccinia recondita f. sp. tritici / wheat / leaf disc preventative (brown rust); type: in vivo; details: foliar, 200 ppm in the applied formulation, wheat leaf segments, preventative, compared to untreated control leaf disks, read-out: disease control
Method in brief: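 Compound application precedes infection: segments of wheat cv. Kanzler, sprayed at 200 ppm, are inoculated with a spore suspension after 1 day. Incubation is at 19° C. with 75% relative humidity and 12 h light/12 h darkness, and control versus untreated leaves is rated 7 to 9 days post-application.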

[3] = test system: Glomerella lagenarium (Colletotrichum lagenarium); assay: Fungicidal activity against Glomerella lagenarium (Colletotrichum lagenarium) liquid culture / cucumber / preventative (anthracnose); type: cell-based; details: Colletotrichum orbiculare; 20 ppm in the applied formulation; liquid culture (PDB), growth inhibition measured photometrically after 3 to 4 days; compared to untreated control; read-out: disease control
Method in brief: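 Photometric read-out of fungal growth after 2–7 days, expressed as percent antifungal activity versus untreated check. Cryo-stored conidia in PDB; compound at 20 ppm; dark, 24 °C, 96% RH.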

CC(C)(C)C(=O)N(Cc1ccc(-c2noc(C(F)(F)F)n2)cc1)C1CC1 [Compound 1.117, N-cyclopropyl-2,2-dimethyl-N-[[4-[5-(trifluoromethyl)-1,2,4-oxadiazol-3-yl]phenyl]methyl]-propanamide]
≥ 80%: pest or weed control at 200 ppm [1] | pest or weed control at 200 ppm (Phakopsora Pachyrhizi) | pest or weed control at 200 ppm [2] | inhibition of growth at 20 ppm [3]

CCOCC(=O)N(OC)C(C)c1ccc(-c2noc(C(F)(F)F)n2)cc1 (centres unmarked) [Compound 1.264, 2-ethoxy-N-methoxy-N-[1-[4-[5-(trifluoromethyl)-1,2,4-oxadiazol-3-yl]phenyl]ethyl]-acetamide]
≥ 80%: pest or weed control at 200 ppm [1] | pest or weed control at 200 ppm (Phakopsora Pachyrhizi) | pest or weed control at 200 ppm [2] | inhibition of growth at 20 ppm [3]

CON(Cc1ccc(-c2noc(C(F)(F)F)n2)cc1)C(=O)C1CSC1 [Compound 1.30, N-methoxy-N-[[4-[5-(trifluoromethyl)-1,2,4-oxadiazol-3-yl]phenyl]methyl]-thietane-3-carboxamide]
≥ 80%: pest or weed control at 200 ppm [1] | pest or weed control at 200 ppm (Phakopsora Pachyrhizi) | pest or weed control at 200 ppm [2] | inhibition of growth at 20 ppm [3]

CC(C)N(Cc1ccc(-c2noc(C(F)(F)F)n2)cc1)C(=O)CC#N [Compound 1.683, 2-cyano-N-isopropyl-N-[[4-[5-(trifluoromethyl)-1,2,4-oxadiazol-3-yl]phenyl]methyl]-acetamide]
≥ 80%: pest or weed control at 200 ppm [1] | pest or weed control at 200 ppm (Phakopsora Pachyrhizi) | pest or weed control at 200 ppm [2] | inhibition of growth at 20 ppm [3]

CON(Cc1ccc(-c2noc(C(F)(F)F)n2)cc1)C(=O)C1(C)CC1(Cl)Cl (centres unmarked) [Compound 1.32, 2,2-dichloro-N-methoxy-1-methyl-N-[[4-[5-(trifluoromethyl)-1,2,4-oxadiazol-3-yl]phenyl]methyl]-cyclopropane-carboxamide]
≥ 80%: pest or weed control at 200 ppm [1] | pest or weed control at 200 ppm (Phakopsora Pachyrhizi) | pest or weed control at 200 ppm [2] | inhibition of growth at 20 ppm [3]

O=C(C1CC1)N(Cc1ccc(-c2noc(C(F)(F)F)n2)cc1)C1CC1 [Compound 1.149, N-cyclopropyl-N-[[4-[5-(trifluoromethyl)-1,2,4-oxadiazol-3-yl]phenyl]methyl]-cyclopropane-carboxamide]
≥ 80%: pest or weed control at 200 ppm [1] | pest or weed control at 200 ppm (Phakopsora Pachyrhizi) | pest or weed control at 200 ppm [2] | inhibition of growth at 20 ppm [3]

C#CCN(Cc1ccc(-c2noc(C(F)(F)F)n2)cc1)C(=O)C(CC)COC (centres unmarked) [Compound 1.194, 2-(methoxymethyl)-N-prop-2-ynyl-N-[[4-[5-(trifluoromethyl)-1,2,4-oxadiazol-3-yl]phenyl]methyl]-butanamide]
≥ 80%: pest or weed control at 200 ppm [1] | pest or weed control at 200 ppm (Phakopsora Pachyrhizi) | pest or weed control at 200 ppm [2] | inhibition of growth at 20 ppm [3]

CCC(=O)N(Cc1c(F)cc(-c2noc(C(F)(F)F)n2)cc1F)OC [Compound 1.594, N-[[2,6-difluoro-4-[5-(trifluoromethyl)-1,2,4-oxadiazol-3-yl]phenyl]methyl]-N-methoxy-propanamide]
≥ 80%: pest or weed control at 200 ppm [1] | pest or weed control at 200 ppm (Phakopsora Pachyrhizi) | pest or weed control at 200 ppm [2] | inhibition of growth at 20 ppm [3]

CON(Cc1ccc(-c2noc(C(F)(F)F)n2)cc1)C(C)=O [Compound 1.1, N-methoxy-N-[[4-[5-(trifluoromethyl)-1,2,4-Oxadiazol-3-yl]Phenyl]Methyl]-Acetamide]
≥ 80%: pest or weed control at 200 ppm [1] | pest or weed control at 200 ppm (Phakopsora Pachyrhizi) | pest or weed control at 200 ppm [2] | inhibition of growth at 20 ppm [3]

CON(Cc1ccc(-c2noc(C(F)(F)F)n2)cc1F)C(=O)C1CC1 [Compound 1.566, N-[[2-fluoro-4-[5-(trifluoromethyl)-1,2,4-oxadiazol-3-yl]phenyl]methyl]-N-methoxy-cyclopropane-carboxamide]
≥ 80%: pest or weed control at 200 ppm [1] | pest or weed control at 200 ppm (Phakopsora Pachyrhizi) | pest or weed control at 200 ppm [2] | inhibition of growth at 20 ppm [3]

CCN(Cc1ccc(-c2noc(C(F)(F)F)n2)cc1)C(=O)NC1CC1 [Compound 3.53, 3-cyclopropyl-1-ethyl-1-[[4-[5-(trifluoromethyl)-1,2,4-oxadiazol-3-yl]phenyl]methyl]urea]
≥ 80%: pest or weed control at 200 ppm [1] | pest or weed control at 200 ppm (Phakopsora Pachyrhizi) | pest or weed control at 200 ppm [2] | inhibition of growth at 20 ppm [3]

CON(Cc1ccc(-c2noc(C(F)(F)F)n2)cc1)C(=O)NCc1ccccc1 [Compound 3.15, 3-benzyl-1-methoxy-1-[[4-[5-(trifluoromethyl)-1,2,4-oxadiazol-3-yl]phenyl]methyl]urea]
≥ 80%: pest or weed control at 200 ppm [1] | pest or weed control at 200 ppm (Phakopsora Pachyrhizi) | pest or weed control at 200 ppm [2] | inhibition of growth at 20 ppm [3]

CCCN(Cc1ccc(-c2noc(C(F)(F)F)n2)cc1)C(=O)C1CCC1 [Compound 1.656, N-propyl-N-[[4-[5-(trifluoromethyl)-1,2,4-oxadiazol-3-yl]phenyl]methyl]-cyclobutane-carboxamide]
≥ 80%: pest or weed control at 200 ppm [1] | pest or weed control at 200 ppm (Phakopsora Pachyrhizi) | pest or weed control at 200 ppm [2] | inhibition of growth at 20 ppm [3]

CON(C)C(=O)N(Cc1ccc(-c2noc(C(F)(F)F)n2)cc1)CC(F)(F)F [Compound 3.25, 1-methoxy-1-methyl-3-(2,2,2-trifluoroethyl)-3-[[4-[5-(trifluoromethyl)-1,2,4-oxadiazol-3-yl]phenyl]methyl]urea]
≥ 80%: pest or weed control at 200 ppm [1] | pest or weed control at 200 ppm (Phakopsora Pachyrhizi) | pest or weed control at 200 ppm [2] | inhibition of growth at 20 ppm [3]

CON(Cc1ccc(-c2noc(C(F)(F)F)n2)cc1)C(=O)C1(C)CC1 [Compound 1.43, N-methoxy-1-methyl-N-[[4-[5-(trifluoromethyl)-1,2,4-oxadiazol-3-yl]phenyl]methyl]-cyclopropane-carboxamide]
≥ 80%: pest or weed control at 200 ppm [1] | pest or weed control at 200 ppm (Phakopsora Pachyrhizi) | pest or weed control at 200 ppm [2] | inhibition of growth at 20 ppm [3]

CC(C)C(=O)N(Cc1ccc(-c2noc(C(F)(F)F)n2)cc1)CC(F)(F)F [Compound 1.689, 2-methyl-N-(2,2,2-trifluoroethyl)-N-[[4-[5-(trifluoromethyl)-1,2,4-oxadiazol-3-yl]phenyl]methyl]-propanamide]
≥ 80%: pest or weed control at 200 ppm [1] | pest or weed control at 200 ppm (Phakopsora Pachyrhizi) | pest or weed control at 200 ppm [2] | inhibition of growth at 20 ppm [3]

CC1(C(=O)N(Cc2ccc(-c3noc(C(F)(F)F)n3)cc2)C2CC2)COC1 [Compound 1.128, N-cyclopropyl-3-methyl-N-[[4-[5-(trifluoromethyl)-1,2,4-oxadiazol-3-yl]phenyl]methyl]-oxetane-3-carboxamide]
≥ 80%: pest or weed control at 200 ppm [1] | pest or weed control at 200 ppm (Phakopsora Pachyrhizi) | pest or weed control at 200 ppm [2] | inhibition of growth at 20 ppm [3]

CN(Cc1ccc(-c2noc(C(F)(F)F)n2)cc1)C(=O)C1CC1 [Compound 1.532, N-methyl-N-[[4-[5-(trifluoromethyl)-1,2,4-oxadiazol-3-yl]phenyl]methyl]-cyclopropane-carboxamide]
≥ 80%: pest or weed control at 200 ppm [1] | pest or weed control at 200 ppm (Phakopsora Pachyrhizi) | pest or weed control at 200 ppm [2] | inhibition of growth at 20 ppm [3]

CC1CC1C(=O)N(Cc1ccc(-c2noc(C(F)(F)F)n2)cc1)C1CC1 (centres unmarked) [Compound 1.115, N-cyclopropyl-2-methyl-N-[[4-[5-(trifluoromethyl)-1,2,4-oxadiazol-3-yl]phenyl]methyl]-cyclopropane-carboxamide]
≥ 80%: pest or weed control at 200 ppm [1] | pest or weed control at 200 ppm (Phakopsora Pachyrhizi) | pest or weed control at 200 ppm [2] | inhibition of growth at 20 ppm [3]

O=C(C1CCOC1)N(Cc1ccc(-c2noc(C(F)(F)F)n2)cc1)CC(F)(F)F (centres unmarked) [Compound 1.692, N-(2.2.2-trifluoroethyl)-N-[[4-[5-(trifluoromethyl)-1,2,4-oxadiazol-3-yl]phenyl]methyl]-tetrahydrofuran-3-carboxamide]
≥ 80%: pest or weed control at 200 ppm [1] | pest or weed control at 200 ppm (Phakopsora Pachyrhizi) | pest or weed control at 200 ppm [2] | inhibition of growth at 20 ppm [3]

CCCN(Cc1ccc(-c2noc(C(F)(F)F)n2)cc1)C(=O)CC#N [Compound 1.664, 2-cyano-N-propyl-N-[[4-[5-(trifluoromethyl)-1,2,4-oxadiazol-3-yl]phenyl]methyl]-acetamide]
≥ 80%: pest or weed control at 200 ppm [1] | pest or weed control at 200 ppm (Phakopsora Pachyrhizi) | pest or weed control at 200 ppm [2] | inhibition of growth at 20 ppm [3]

C=C(C)C(=O)N(Cc1ccc(-c2noc(C(F)(F)F)n2)cc1)CC1CC1 [Compound 1.229, N-(cyclopropylmethyl)-2-methyl-N-[[4-[5-(trifluoromethyl)-1,2,4-oxadiazol-3-yl]phenyl]methyl]-prop-2-enamide]
≥ 80%: pest or weed control at 200 ppm [1] | pest or weed control at 200 ppm (Phakopsora Pachyrhizi) | pest or weed control at 200 ppm [2] | inhibition of growth at 20 ppm [3]

CON(C(=O)C1CC1F)C(C)c1ccc(-c2noc(C(F)(F)F)n2)cc1 (centres unmarked) [Compound 1.275, 2-fluoroN-methoxy-N-[1-[4-[5-(trifluoromethyl)-1,2,4-oxadiazol-3-yl]phenyl]ethyl]-cyclopropane-carboxamide]
≥ 80%: pest or weed control at 200 ppm [1] | pest or weed control at 200 ppm (Phakopsora Pachyrhizi) | pest or weed control at 200 ppm [2] | inhibition of growth at 20 ppm [3]
